# Counter-ions that a name gives are not always drawn.
row,melting point,Structure (SMILES)
1,196 to 198 °C,Cn1nc(-c2ccc(OCCCN3CCCCC3)cc2)c2c(c1=O)CCCC2 (as salt: HCl) [Example 61]
2,277 to 279 °C,"Cc1nn(-c2ccsc2)c(=O)cc1-c1ccc(OC2CCN(C3CCC3)CC2)cc1 (as salt: HCl) [Example 107, 5-[4-(1-Cyclobutyl-piperidin-4-yloxy)-phenyl]-6-methyl-2-thiophen-3-yl-2H-pyridazin-3-one]"
3,249 to 250 °C,O=c1cc(-c2ccc(OCCCN3CCCCC3)cc2)cn[nH]1 (as salt: hydrochloride) [Example 97]
4,250 to 252 °C,"Cn1nc(-c2ccc(OCC3CCN(C4CCC4)CC3)cc2)ccc1=O (as salt: HCl) [Example 67, 6-[4-(1-Cyclobutyl-piperidin-4-ylmethoxy)-phenyl]-2-methyl-2H-pyridazin-3-one]"
5,< 50 °C,"CN1N=C(c2ccc(OCCCN3CCCCC3)cc2)C2CCCC2C1=O (centres unmarked) (as salt: HCl) [Example 59, 2-Methyl-4-[4-(3-piperidin-1-yl-propoxy)-phenyl]-2,4a,5,6,7,7a-hexahydro-cyclopenta[d]pyridazin-1-one]"
6,188 to 190 °C,"C[C@H](COc1ccc(-c2ccc(=O)n(C)n2)cc1)CN1CCC[C@H]1C (as salt: HCl) [Example 13, 2-Methyl-6-{4-[(S)-2-methyl-3-((R)-2-methyl-pyrrolidin-1-yl)-propoxy]-phenyl}-2H-pyridazin-3-one]"
7,115 °C (dec.),"Cc1n[nH]c(=O)cc1-c1ccc(OCCCN2CCC[C@H]2C)cc1 (as salt: hydrochloride) [Example 88, 6-Methyl-5-{4-[3-((R)-2-methyl-pyrrolidin-1-yl)-propoxy]-phenyl}-2H-pyridazin-3-one]"
8,210 to 211 °C,"Cc1nn(C)c(=O)cc1-c1ccc(OCCCN2CCCCC2)cc1 (as salt: hydrochloride) [Example 87, 2,6-Dimethyl-5-[4-(3-piperidin-1-yl-propoxy)-phenyl]-2H-pyridazin-3-one]"
9,230 to 232 °C,"O=c1cc(-c2ccc(OCCCN3CCCCCC3)cc2)cnn1-c1ccccn1 (as salt: HCl) [Example 96, 5-[4-(3-Azepan-1-yl-propoxy)-phenyl]-2-pyridin-2-yl-2H-pyridazin-3-one]"
10,188 to 190 °C,"CCN(CC)CCCOc1ccc(-c2nn(C(C)C)c(=O)c3ccsc23)cc1 (as salt: HCl) [Example 28, 7-[4-(3-Diethylamino-propoxy)-phenyl]-5-isopropyl-5H-thieno[2,3-d]pyridazin-4-one]"
11,190 to 191 °C,"C[C@@H]1CCCN1CCCOc1ccc(-c2ccc(=O)n(-c3ccccc3)n2)cc1F (as salt: HCl) [Example 81, 6-{3-Fluoro-4-[3-((R)-2-methyl-pyrrolidin-1-yl)-propoxy]-phenyl}-2-phenyl-2H-pyridazin-3-one]"
12,175 to 176 °C,"Cc1cc(-c2ccc(OCCCN3CCC[C@H]3C)cc2)nn(C)c1=O (as salt: HCl) [Example 40, 2,4-Dimethyl-6-{4-[3-((R)-2-methyl-pyrrolidin-1-yl)-propoxy]-phenyl}-2H-pyridazin-3-one]"
13,216 to 217 °C,"O=c1c2ccccc2c(-c2ccc(OCCCN3CCCCC3)cc2)nn1Cc1ccc(Cl)cc1 (as salt: HCl) [Example 55, 2-(4-Chloro-benzyl)-4-[4-(3-piperidin-1-yl-propoxy)-phenyl]-2H-phthalazin-1-one]"
14,288 to 290 °C,"O=C1NN=C(c2ccc(OC3CCN(C4CCCC4)CC3)cc2)C2CC12 (centres unmarked) (as salt: HCl) [Example 261, 5-[4-(1-Cyclopentyl-piperidin-4-yloxy)-phenyl]-3,4-diaza-bicyclo[4.1.0]hept-4-en-2-one]"
15,251 to 252 °C,"Cn1ncc2ccc(OCCCN3CCCCC3)cc2c1=O (as salt: HCl) [Example 80, 2-Methyl-7-(3-piperidin-1-yl-propoxy)-2H-phthalazin-1-one]"
16,106 °C (dec.),"Cc1cccnc1-n1nc(C)c(-c2ccc(OCCCN3CCC[C@H]3C)cc2)cc1=O (as salt: hydrochloride) [Example 101, 6-Methyl-2-(3-methyl-pyridin-2-yl)-5-{4-[3-((R)-2-methyl-pyrrolidin-1-yl)-propoxy]-phenyl}-2H-pyridazin-3-one]"
17,232 to 233 °C,"Cc1cc(-c2ccc(OCCCN3CCCCC3)cc2)nn(Cc2ccccc2)c1=O (as salt: HCl) [Example 44, 2-Benzyl-4-methyl-6-[4-(3-piperidin-1-yl-propoxy)-phenyl]-2H-pyridazin-3-one]"
18,256 to 257 °C,"Cn1nc(-c2ccc(OCC3CCN(C4CCC4)CC3)cc2)c2ccccc2c1=O (as salt: HCl) [Example 64, 4-[4-(1-Cyclobutyl-piperidin-4-ylmethoxy)-phenyl]-2-methyl-2H-phthalazin-1-one]"
19,246 to 248 °C,"CCN1N=C(c2ccc(OC3CCN(C4CCC4)CC3)cc2)C2CC2C1=O (centres unmarked) (as salt: HCl) [Example 250, 5-[4-(1-Cyclobutyl-piperidin-4-yloxy)-phenyl]-3-ethyl-3,4-diaza-bicyclo[4.1.0]hept-4-en-2-one]"
20,232 to 233 °C,"C[C@@H]1CCCN1CCCOc1ccc(-c2cc(Cc3ccccc3)c(=O)n(C)n2)cc1 (as salt: HCl) [Example 45, 4-Benzyl-2-methyl-6-{4-[3-((R)-2-methyl-pyrrolidin-1-yl)-propoxy]-phenyl}-2H-pyridazin-3-one]"
21,185 to 197 °C (dec.),"COCn1ncc(-c2ccc(OCCCN3CCCCC3)cc2C)cc1=O (as salt: HCl) [Example 232, 2-Methoxymethyl-5-[2-methyl-4-(3-piperidin-1-yl-propoxy)-phenyl]-2H-pyridazin-3-one]"
22,98 to 100 °C,"Cc1cccnc1-n1ncc(-c2ccc(OCCCN3CCC[C@H]3C)cc2)cc1=O (as salt: hydrochloride) [Example 99, 2-(3-Methyl-pyridin-2-yl)-5-{4-[3-((R)-2-methylpyrrolidin-1-yl)-propoxy]-phenyl}-2H-pyridazin-3-one]"
23,156 to 158 °C,"C[C@@H]1CCCN1CCCOc1ccc(-c2nn(C)c(=O)c3c2CCCC3)cc1 (as salt: HCl) [Example 60, 2-Methyl-4-{4-[3-((R)-2-methyl-pyrrolidin-1-yl)-propoxy]-phenyl}-5,6,7,8-tetrahydro-2H-phthalazin-1-one]"
24,51 to 55 °C,"C[C@@H]1CCCN1CCCOc1ccc(-n2nc(C3CC3)ccc2=O)cc1 (as salt: fumarate) [Example 262, 6-Cyclopropyl-2-{4-[3-((R)-2-methyl-pyrrolidin-1-yl)-propoxy]-phenyl}-2H-pyridazin-3-one]"
25,168 to 170 °C,"Cc1ccc(=O)n(-c2ccc(OCCCN3CCC[C@H]3C)cc2)n1 (as salt: fumarate) [Example 201, 6-Methyl-2-{4-[3-((R)-2-methyl-pyrrolidin-1-yl)-propoxy]-phenyl}-2H-pyridazin-3-one]"
26,135 to 140 °C,"COc1cn[nH]c(=O)c1-c1ccc(OCCCN2CCC[C@H]2C)cc1 (as salt: hydrochloride) [Example 237, 5-Methoxy-4-{4-[3-((R)-2-methyl-pyrrolidin-1-yl)-propoxy]-phenyl}-2H-pyridazin-3-one]"

# — patent US8586588B2, “Aryl pyridazinone derivatives and their use as H3 receptor ligands” (Cephalon, Inc., priority 2006, dated 2013)
